This is an account of results in publication PMC10144058, “New Hybrid Scaffolds Based on 5-FU/Curcumin: Synthesis, Cytotoxic, Antiproliferative and Pro-Apoptotic Effect” (Pharmaceutics, 2023).

For orientation: IC50 means the concentration needed to halve the response being measured. The term viability denotes the share of living cells, or the viability signal relative to a control.

Like-named read-outs stand apart in the source and are kept apart here. Bounds are passed on as bounds.

The subject of one series is SW480 cells. As to the kind of experiment: Cell viability, sulforhodamine B (SRB) assay. Type of series: cell-based. To be noted: Homo sapiens. The protocol: (§1) SW480 (colon adenocarcinoma) and SW620 (derived metastatic) malignant cell lines, and the non-malignant lines HaCaT (human keratinocytes) and CHO-K1 (Chinese Hamster Ovary), were obtained from the European Collection of Authenticated Cell Cultures (ECACC, Porton Down, Salisbury, UK). The cells were maintained in Dulbecco’s Modified Eagle’s Medium (DMEM), supplemented with 10% equine serum previously inactivated at 56 °C, 1% penicillin/streptomycin, and 1% non-essential amino acids, and incubated at 37 °C in an atmosphere with 5% CO2. To carry out the experiments, the serum was diluted to 3% and additionally supplemented with […] insulin, […] transferrin, and 5 ng/mL selenium. Cells were used for experimentation when they reached 80–90% confluence, using a 1X trypsin enzymatic disintegration method. To avoid contamination by Mycoplasma spp., cell cultures were periodically analyzed by polymerase chain reaction (PCR).
(§2) Cell viability was evaluated with a sulforhodamine B (SRB) assay. This technique provides an index of protein contents in living and adherent cells, whose optical density can be related to cell concentration. Initially, 20,000 cells were seeded per well in 96-well culture plates. An initial adherence period of 24 h was performed at 37 °C, 5% CO2, and after this, the medium was replaced by another that contained the hybrid compounds in different concentrations. Then, the cells were left incubating for 24 and 48 h under the same conditions previously described. After the respective incubation times, the cells were fixed with trichloroacetic acid (50% v/v) for 1 h at 4 °C and stained with 0.4% (p/v) of SRB. Subsequently, washings with 1% acetic acid were carried out to eliminate possible nonspecific bindings, and after solubilization with 10 mM Tris-base, the absorbance was read at 492 nm in a microplate reader (Mindray MR-96A). All the experiments were carried out in triplicate.
(In general: Sulforhodamine B stains cellular protein and so reports cell mass.)

Series [1] deals with SW620 cells. In words: Cell viability, sulforhodamine B (SRB) assay. Type of series: cell-based, human. The protocol: as §1, §2
Another series concerns HaCaT cells. In words: Cell viability, sulforhodamine B (SRB) assay, non-malignant cells. It is filed as cell-based. To be noted: Homo sapiens. The method, then:
as §1, §2

The next series relates to CHO-K1 cells. Described as above. Type of series: cell-based, Chinese Hamster. To be noted: Cricetulus griseus. The protocol:
as §1, §2

Series [2] deals with SW620 cells. As to the kind of experiment: Antiproliferative activity (SRB, 0-8 days). Type of series: cell-based, human. To be noted: for viability at 2.5 µM / viability at 40 µM: Homo sapiens, read-out: Cell Viability (%) ± SE; for viability at 2.5 µM: SW620, 2.5 µM; for viability at 40 µM: SW620, 40 µM. The method, then:
For this experiment, the same colorimetric method (SRB) from the evaluation of cell viability was used, although with some modifications. Initially, 2500 cells per well were seeded in 96-well culture plates, and a 24 h adherence period was performed at 37 °C in a 5% CO2 atmosphere. […] For this assay, incubation periods of 0, 2, 4, 6, and 8 days were used, and the fixation, staining, and reading conditions were the same as those previously described for the cytotoxicity assay.

The subject of series [3] is SW620 cells. As to the kind of experiment: Cell cycle analysis (PI, flow cytometry). It is filed as cell-based, human. Conditions: SW620, treated with IC50 value, 48 h. The method, then: The method used for the recognition of cell cycle phases (G0/G1, S, G2/M) was based on staining with a fluorescent dye (propidium iodide—PI), as a direct relationship between fluorescence intensity and DNA content can be established. For this method, 250,000 cells/well were initially seeded in 6-well culture plates with an adherence period of 24 h at 37 °C in a 5% CO2 atmosphere. […] After treatment, cells were obtained by mechanical disaggregation, and the cell pellet was centrifuged and washed with a versene buffer. The cell pellet was fixed with 1.8 mL of cold 70% ethanol and kept at 4 °C overnight. Subsequently, two washes with a versene buffer were performed, and the pellet was resuspended in 300 µL of PBS containing 0.25 mg/mL of RNAsa and 0.1 mg/mL of PI. After a 30 min period of dark incubation, the fluorescence of 10,000 cells was analyzed using a FACS Canto II flow cytometer. The PI signal was analyzed with excitation at 488 nm using a sapphire laser, and fluorescence was detected at 610 nm. The data analysis was performed with FlowJo 10.8.1 software.

For series [4], the system named is SW620 cells. In words: Mitochondrial membrane potential (DiOC6/PI, flow cytometry). It is filed as cell-based, human. Conditions: SW620, treated with IC50, 48 h. The method, then:
The fluorescent dyes PI and DIOC6 (3,3’-dihexyloxacarbocyanine iodide) were used to observe the depolarization of the mitochondrial membrane as well as possible cell membrane damage. For this method, 250,000 cells/well were initially seeded in 6-well culture plates during a 24 h adherence period at 37 °C in a 5% CO2 atmosphere. […] After treatment, cells were obtained by mechanical disaggregation, stained with DiOC6 and PI, and incubated at room temperature for 30 min in the dark. Ten thousand events were analyzed by flow cytometry with excitation at 488 nm and emission detection with green (530/15 nm) and red (610/20 nm) filters.
On the technique in general: Flow cytometry measures light scatter and fluorescence of single cells or particles in a stream.

Series [5] concerns SW620 cells. As to the kind of experiment: Cell death induction (Annexin-V/PI, flow cytometry). To be noted: SW620, treated with IC50, 48 h. Type of series: cell-based, human. The protocol:
For this method, 250,000 cells/well were initially seeded in 6-well culture plates during a 24 h adherence period at 37 °C in a 5% CO2 atmosphere. […] After treatment, cells were obtained by mechanical disaggregation, resuspended in a solution with Annexin-V-FLUOS and PI, and incubated for 20 min in the dark before flow cytometry analysis.

In series [6] the test system is caspase 3, caspase 7, caspase 8 and p53 in SW620 cells. In words: Apoptotic biomarkers (ELISA). Type of series: cell-based, human. To be noted: SW620, treated with IC50, 48 h, vs control. The protocol:
To provide an approach to the possible molecular mechanisms through which the hybrid compounds induce an effect on the cell lines, different proteins related to the process of death by apoptosis were determined. For this method, 1,000,000 cells were initially seeded per Petri dish, with an adherence period of 24 h at 37 °C in a 5% CO2 atmosphere. […] Later, the consumed medium was discarded, and after the addition of the versene buffer, the cells were obtained by mechanical disaggregation. The cells were then lysed with a cell lysis buffer and centrifuged to obtain the supernatant, which was used to determine the biomarkers of interest by enzyme-linked immunosorbent assays. These ELISA kits were provided by Elabscience Biotechnology Co., Houston, TX, USA [26].
For orientation: In an ELISA, binding on a coated surface is turned into a signal by an enzyme label.

Series [7] deals with HT29 colorectal adenocarcinoma cells. Further details: method as in PMID 33652694. Conditions: cited from earlier work.
The test system of the next series is metastatic SW620. On the set-up: method as in PMID 33652694. To be noted: cited from earlier work.
[8] abbreviates: SW-620, 48 h, 2 days after plating.
Where [9] appears, read: SW-620, 96 h, 4 days after plating.
Setting [10] is: SW-620, 144 h, 6 days after plating.
Setting [11] is: SW-620, 192 h, 8 days after plating.

Take `COc1cc(/C=C/C(=O)c2ccc(OCCCCCCn3cc(Cn4cc(F)c(=O)[nH]c4=O)nn3)cc2)ccc1O` [Compound 6e, (E)-5-fluoro-1-((1-(6-(4-(3-(4-hydroxy-3-methoxyphenyl)acryloyl)phenoxy)hexyl)-1H-1,2,3-triazol-4-yl)methyl)pyrimidine-2,4(1H,3H)-dione]: the IC50 was 38.8 ± 5.46 µM in the series with SW480 cells (SW480, 24 h); 18.2 ± 0.88 µM in the series with SW480 cells (SW480, 48 h); 14.5 ± 1.31 µM in the series on SW620 cells [1] (48 h); more than 100 µM in the series on SW620 cells [1] (Homo sapiens, SW-620, 24 h, 24 h); 19.5 µM in the series with SW620 cells [1] (Homo sapiens, SW-620, 48 h, 48 h); 76.9 ± 5.87 µM in the series on HaCaT cells (24 h). In addition, the half-inhibitory concentration (IC50) in the series on HaCaT cells (48 h) amounted to 19.7 ± 1.99 µM; in the series on CHO-K1 cells (CHO-K1, 24 h) it was 33.8 ± 2.2 µM; in the series on CHO-K1 cells (CHO-K1, 48 h), 34.5 ± 1.37 µM. In addition, the viability at 2.5 µM was 95.6 ± 4.08% in the series on SW620 cells [2] (setting [8]), 60.65 ± 0.46% in the series on SW620 cells [2] (setting [9]), 56.5 ± 2.09% in the series on SW620 cells [2] (setting [10]) and 48.9 ± 3.46% with SW620 cells [2] (setting [11]). The viability at 40 µM in the series on SW620 cells [2] (setting [8]) was found to be 8.77 ± 1.85%; with SW620 cells [2] (setting [9]), 0%; in the series on SW620 cells [2] (setting [10]) it was 0%; with SW620 cells [2] (setting [11]) it was 0%. Besides, in the series with SW620 cells [2] (SW620, from 20 µM, day 2), the “inhibition percentages (decrease in cell viability)” value is given as “higher than 30%”. In addition, the “Cell cycle distribution, G0/G1” value with SW620 cells [3] amounted to 20.6%. The “Cell cycle distribution, G2/M” value with SW620 cells [3] is listed as 8.8%. For the same compound, the “Cell cycle distribution, S Phase” value with SW620 cells [3] is 24.5%. In addition, the “Dioc6 High population (live cells with high membrane polarization)” value with SW620 cells [4] is 96%. Further, the “Dioc6 Low population (cells that lose membrane polarization)” value in the series with SW620 cells [4] is 0%. In the series on SW620 cells [4], the “PI+ population (membrane damage or dead cells)” value was 4.05%. In the series on SW620 cells [4], the “changes in the mitochondrial membrane potential” value is “do not induce significant changes”. Besides, the “Annexin V/PI quadrant Q4 (viable cells)” value in the series with SW620 cells [5] amounted to 84.7%. Also, the “levels of executioner caspases 3 and 7” value in series [6] is “Significantly increased levels”.
Regarding `COc1cccc(/C=C2\CCC/C(=C\c3cccc(OC)c3OC)C2=O)c1OC` [DMCH, (2E,6E)-2,6-Bis(2,3-Dimethoxybenzylidine) Cyclohexanone], the “increase of the sub-G0/G1 population in the cell cycle” value (in [7]; in the series with metastatic SW620) was “more than 70%” each time.
